Test results published in US20230201217A1 (priority 2019, published 2023).
pIC50: −log10 of the molar value.

Assays:
CYP2C19 = CYP2C19 (Homo sapiens, UniProt P33261); details: recombinant enzyme
Method: (§1) Control incubations were performed for each assay with appropriate positive inhibitory controls.

[1] = biological target: T1, rat α3β4 nicotinic acetylcholine receptor (nAChR) (Rattus norvegicus, UniProt P04757+P12392); experiment: cell-based
T1 construct: expressed in transfected cells; host or cells: HEK 293 (ATCC CRL1573), transient, Lipofectamine 2000

[2] = system: polychromatic erythrocytes in mouse bone marrow; experiment: Mouse bone marrow in vivo micronucleus assay; details: GLP, 50, 75, 120 mg/kg/day for 3 days
Method: Treatment resulted and clinical signs of lethargy and piloerection at doses of 200-400 mg/kg and in mortality of male and female ICR mice at doses of 300 and 400 mg/kg. The highest non-lethal dose was 250 mg/kg.
These doses were based upon prior toxicology data indicating higher doses were associated with mortality in this species. […] A positive control group received a single oral dose of 60 mg/kg cyclophosphamide on Day 2, the day prior to the scheduled euthanasia. Each group consisted of 6 males. Males only were used as no significant differences in response related to gender were expected based upon prior toxicology and toxicokinetic data. All animals were euthanized on Day 3, the day following the final dose and discarded following bone marrow collection.
All animals were observed twice daily for mortality and moribundity. Bone marrow collection for micronucleus evaluation was performed for 5 of the 6 animals in each group at the scheduled euthanasia (Day 3). All animals were discarded without necropsy. Bone marrow smears were prepared, and the coded slides were counted for polychromatic, normochromatic, and micronucleated polychromatic erythrocytes following the final bone marrow sample collection on Day 3.

[3] = system: animal substance use models; details: i.p.; cited from earlier work
CYP2C9 = CYP2C9 (Homo sapiens, UniProt P11712); details: recombinant enzyme
Method: as §1

[4] = Toxicokinetics, 14-day oral gavage study in CD-1 mice; format: in vivo, mouse; details: after 14 days of 25 mg/kg 18-MC HCl
Method: The relative metabolite concentrations were determined from plasma samples obtained on the last day of dosing in the 25 mg/kg/day group of animals using a UPLC/MS/MS method. Major metabolites were identified as M2 and M4, followed by M8 and M9. The parent 18-MC exposure was less than 1% of the total drug related material. No significant sex differences were observed.
All test article-treated animals underwent up-titration of dosage levels prior to reaching the maximum daily dose, which was administered for 14 consecutive days. […] The dose volume was 10 mL/kg for all groups. Groups 1 and 4 each consisted of 25 animals/sex and Groups 2-3 each consisted of 20 animals for each sex. Following 14 days of dose administration, 15 mice/sex/toxicology group were euthanized; the remaining 5, (10 for the control and high dose group) mice/sex/toxicology group were euthanized following a 14-day nondosing (recovery) period. Following the final blood collection (study day 13), all toxicokinetic animals (from a satellite group of 18 animals/sex/dose level) were euthanized.

cynomolgus monkeys = experiment: 14-day nasogastric gavage GLP toxicity study in cynomolgus monkeys; format: in vivo, cynomolgus monkey; details: 14 days
Description: Assessments of neurobehavioral effects and general toxicity were based on mortality, functional observational battery (FOB) evaluations, clinical observations, body weight, and body temperature; ophthalmoscopic, electrocardiographic examinations; and anatomic and clinical pathology. The anatomical pathology evaluations included histopathology of a full list of tissues from all animals and a comprehensive evaluation of the central nervous system (including selected peripheral nerves) utilizing whole body perfusion and special stains. Bone marrow smears from all animals were evaluated microscopically. Complete differentials and myeloid-erythroid (ME) ratios were performed. Toxicokinetic assessment was conducted for the test article and metabolites.

T1 sequence (P04757 26-499): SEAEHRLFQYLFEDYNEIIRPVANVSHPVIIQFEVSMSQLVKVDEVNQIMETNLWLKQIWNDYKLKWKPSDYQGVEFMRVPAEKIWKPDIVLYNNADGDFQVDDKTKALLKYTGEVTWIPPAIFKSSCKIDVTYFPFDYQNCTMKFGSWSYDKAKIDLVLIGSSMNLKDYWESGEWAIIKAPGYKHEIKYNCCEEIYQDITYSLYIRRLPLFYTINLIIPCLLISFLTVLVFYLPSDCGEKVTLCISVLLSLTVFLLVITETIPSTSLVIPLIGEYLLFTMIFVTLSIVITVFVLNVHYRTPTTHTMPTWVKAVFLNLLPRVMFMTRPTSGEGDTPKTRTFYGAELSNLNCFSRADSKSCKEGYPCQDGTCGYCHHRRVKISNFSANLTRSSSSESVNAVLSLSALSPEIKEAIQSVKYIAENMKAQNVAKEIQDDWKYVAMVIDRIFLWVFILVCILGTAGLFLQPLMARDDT
T1 sequence (P12392 21-495): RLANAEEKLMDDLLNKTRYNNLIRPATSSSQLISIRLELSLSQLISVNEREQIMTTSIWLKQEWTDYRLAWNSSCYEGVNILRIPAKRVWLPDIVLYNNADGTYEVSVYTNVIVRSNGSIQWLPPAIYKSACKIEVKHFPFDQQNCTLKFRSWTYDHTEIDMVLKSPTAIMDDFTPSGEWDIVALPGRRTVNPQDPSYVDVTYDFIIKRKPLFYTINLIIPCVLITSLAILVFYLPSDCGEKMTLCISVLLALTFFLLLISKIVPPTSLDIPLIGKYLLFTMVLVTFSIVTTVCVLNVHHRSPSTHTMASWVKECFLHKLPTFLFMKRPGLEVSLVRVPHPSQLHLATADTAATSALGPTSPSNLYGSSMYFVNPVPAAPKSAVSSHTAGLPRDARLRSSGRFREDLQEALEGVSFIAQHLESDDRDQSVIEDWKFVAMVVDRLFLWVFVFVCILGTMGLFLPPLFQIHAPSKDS
Sequence of CYP2C9 (P11712 whole entry): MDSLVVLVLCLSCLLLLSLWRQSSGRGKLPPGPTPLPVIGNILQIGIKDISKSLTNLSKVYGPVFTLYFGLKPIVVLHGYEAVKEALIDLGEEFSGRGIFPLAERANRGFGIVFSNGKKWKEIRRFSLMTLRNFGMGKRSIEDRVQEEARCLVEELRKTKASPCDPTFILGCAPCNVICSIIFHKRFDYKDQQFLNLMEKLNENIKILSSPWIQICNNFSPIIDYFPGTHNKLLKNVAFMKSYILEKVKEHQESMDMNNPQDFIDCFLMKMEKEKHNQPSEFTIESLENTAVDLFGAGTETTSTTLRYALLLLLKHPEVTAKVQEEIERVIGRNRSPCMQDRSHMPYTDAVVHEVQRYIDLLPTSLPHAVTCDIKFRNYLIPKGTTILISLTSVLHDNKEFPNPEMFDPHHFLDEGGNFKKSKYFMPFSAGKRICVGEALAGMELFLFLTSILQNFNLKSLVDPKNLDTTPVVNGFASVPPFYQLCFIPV
Sequence of CYP2C19 (P33261 whole entry): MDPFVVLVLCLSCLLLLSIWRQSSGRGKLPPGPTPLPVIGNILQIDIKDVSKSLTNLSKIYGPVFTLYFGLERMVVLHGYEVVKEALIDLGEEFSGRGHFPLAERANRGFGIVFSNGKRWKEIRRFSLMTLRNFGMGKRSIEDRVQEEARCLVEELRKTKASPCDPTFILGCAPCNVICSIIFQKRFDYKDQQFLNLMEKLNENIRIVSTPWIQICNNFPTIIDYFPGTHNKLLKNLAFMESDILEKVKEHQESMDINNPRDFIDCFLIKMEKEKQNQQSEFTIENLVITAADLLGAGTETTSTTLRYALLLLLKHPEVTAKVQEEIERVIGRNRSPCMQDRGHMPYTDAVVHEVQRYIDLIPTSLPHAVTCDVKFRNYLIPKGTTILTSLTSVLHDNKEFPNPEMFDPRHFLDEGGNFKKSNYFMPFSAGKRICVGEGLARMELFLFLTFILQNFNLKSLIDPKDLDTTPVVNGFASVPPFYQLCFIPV

COCC[C@H]1CC2CN3CCc4c([nH]c5ccccc45)[C@](C(=O)OC)(C2)[C@H]13 [18-MC, 18-methoxycoronaridine]
pIC50 (CYP2C19): 5.31
Ipeak [1]: 50 ± 4% of ACh
Iss [1]: 34 ± 5% of peak
τdecay [1]: 298 ± 23 ms
pIC50 ([1]; read-out: IC50, inhibition of ACh-evoked currents): 6.10
bone marrow cytotoxicity and clastogenic activity [2]: negative response
lowest dosage that significantly reduces drug self-administration [3]: ≥ 10 mg/kg
pIC50 (CYP2C9): 5.39
AUC [4]: 251 ng·h/mL
Cmax [4]: 105 ng/mL
NOAEL (cynomolgus monkeys): 50 mg/kg/day
